Measurements: ChEMBL document CHEMBL1128392, “Receptor surface models. 2. Application to quantitative structure-activity relationships studies” (J Med Chem, 1995)

Target: Dopamine beta-hydroxylase (Homo sapiens, UniProt P09172)
Experiment: Inhibition of dopamine beta hydroxylase

Chain of Dopamine beta-hydroxylase (P09172 whole entry): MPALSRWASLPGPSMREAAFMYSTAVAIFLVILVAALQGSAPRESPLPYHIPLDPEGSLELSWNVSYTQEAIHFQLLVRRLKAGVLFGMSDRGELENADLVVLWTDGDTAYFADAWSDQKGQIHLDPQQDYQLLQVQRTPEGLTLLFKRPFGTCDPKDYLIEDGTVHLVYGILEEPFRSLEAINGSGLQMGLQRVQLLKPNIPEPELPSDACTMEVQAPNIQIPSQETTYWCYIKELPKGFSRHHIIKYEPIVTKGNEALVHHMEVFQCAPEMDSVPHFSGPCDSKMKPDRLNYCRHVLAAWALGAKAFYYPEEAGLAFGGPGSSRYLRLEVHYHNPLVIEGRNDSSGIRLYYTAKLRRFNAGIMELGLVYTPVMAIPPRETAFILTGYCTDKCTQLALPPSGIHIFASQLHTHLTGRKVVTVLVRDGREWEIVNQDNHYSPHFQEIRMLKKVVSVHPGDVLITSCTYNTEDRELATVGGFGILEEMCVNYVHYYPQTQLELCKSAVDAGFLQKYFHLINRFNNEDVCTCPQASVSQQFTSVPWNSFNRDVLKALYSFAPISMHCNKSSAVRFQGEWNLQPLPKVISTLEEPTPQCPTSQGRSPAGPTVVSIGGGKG

SMILES	IC50
COc1ccc(Cn2cc[nH]c2=S)cc1C	69.2 µM
O=[N+]([O-])c1ccc(Cn2cc[nH]c2=S)cc1	52.5 µM
Cc1cc(Cn2cc[nH]c2=S)ccc1O	49 µM
Cc1ccc(Cn2cc[nH]c2=S)cc1	148 µM
Oc1c(F)c(F)c(Cn2cc[nH]c2=S)c(F)c1F	61.7 µM
S=c1[nH]ccn1Cc1ccc(Cl)cc1Cl	17 µM
COc1cc(Cl)c(Cn2cc[nH]c2=S)c(Cl)c1	155 µM
Oc1ccc(Cn2cc[nH]c2=S)cc1C(F)(F)F	120 µM
COc1ccc(Cn2cc[nH]c2=S)cc1	204 µM
COc1ccccc1Cn1cc[nH]c1=S	74.1 µM
COc1ccc(Cn2cc[nH]c2=S)cc1Br	83.2 µM
Cc1ccccc1Cn1cc[nH]c1=S	339 µM
Oc1ccc(Cn2cc[nH]c2=S)cc1	2.57 µM
S=c1[nH]ccn1Cc1cccc(Cl)c1Cl	52.5 µM
COc1ccc(Cn2cc[nH]c2=S)cc1C(F)(F)F	174 µM
Oc1c(Cl)cc(Cn2cc[nH]c2=S)cc1Cl	0.676 µM
COc1cccc(Cn2cc[nH]c2=S)c1	158 µM
COc1c(F)cc(Cn2cc[nH]c2=S)cc1F	36.3 µM
S=c1[nH]ccn1Cc1ccc(Br)cc1	115 µM
S=c1[nH]ccn1Cc1c(Cl)cc(Cl)cc1Cl	102 µM
COc1ccc(Cn2cc[nH]c2=S)cc1OC	339 µM
S=c1[nH]ccn1Cc1cc(Cl)ccc1Cl	97.7 µM
FC(F)(F)c1ccc(Cn2cc[nH]c2=S)cc1	200 µM

SMILES	IC50
S=c1[nH]ccn1Cc1ccccc1	33.1 µM
COc1ccc(Cn2cc[nH]c2=S)cc1[N+](=O)[O-]	355 µM
Oc1ccc(Cn2cc[nH]c2=S)cc1O	2.19 µM
COc1c(Cl)cc(Cn2cc[nH]c2=S)cc1Cl	46.8 µM
COc1cccc(OC)c1Cn1cc[nH]c1=S	501 µM
Fc1ccc(Cn2cc[nH]c2=S)cc1	46.8 µM
S=c1[nH]ccn1Cc1ccc(Cl)c(Cl)c1	28.2 µM
Oc1ccccc1Cn1cc[nH]c1=S	575 µM
S=c1[nH]ccn1Cc1ccccc1Cl	355 µM
Fc1cc(F)cc(Cn2cc[nH]c2=S)c1	1.2 µM
S=c1[nH]ccn1Cc1cc(Cl)cc(Cl)c1	2.4 µM
COc1ccc(Cn2cc[nH]c2=S)cc1F	74.1 µM
Oc1ccc(Cn2cc[nH]c2=S)cc1F	1.51 µM
Oc1cc(Cl)c(Cn2cc[nH]c2=S)c(Cl)c1	75.9 µM
Oc1ccc(Cn2cc[nH]c2=S)cc1Br	12 µM
Cc1cccc(C)c1Cn1cc[nH]c1=S	1000 µM
S=c1[nH]ccn1Cc1c(Cl)cccc1Cl	708 µM
O=[N+]([O-])c1cc(Cn2cc[nH]c2=S)ccc1O	30.9 µM
Oc1c(F)cc(Cn2cc[nH]c2=S)cc1F	0.0741 µM
Oc1cccc(Cn2cc[nH]c2=S)c1	148 µM
S=c1[nH]ccn1Cc1ccc(Cl)cc1	95.5 µM
S=c1[nH]ccn1Cc1cccc(Cl)c1	12 µM
Fc1cccc(Cn2cc[nH]c2=S)c1	5.62 µM
